In assay [1] the target is PI3Kδ (p110δ/p85α) Recombinant Human Protein (Homo sapiens (Human), UniProt O00329). The experiment in a line: PI3Kδ Scintillation Proximity Assay. It is filed as biochemical. The following applies: 2 μM ATP, 20 μM PIP2, 3.4 nM PI3Kδ. The source says: PI3Kδ Scintillation Proximity Assay
[γ-^33P]ATP (10 mCi/mL) and Wheat Germ Agglutinin (WGA) YSi SPA Scintillation Beads was purchased from Perkin-Elmer (Waltham, Mass.). Lipid kinase substrate, D-myo-Phosphatidylinositol 4,5-bisphosphate (PtdIns(4,5)P2)D (+)-sn-1,2-di-O-octanoylglyceryl, 3-O-phospho linked (PIP2), CAS 204858-53-7, was purchased from Echelon Biosciences (Salt Lake City, Utah). PI3Kδ (p110δ/p85α) Recombinant Human Protein was purchased from Eurofins (St Charles, Mo.). ATP, MgCl2, DTT, EDTA, MOPS and CHAPS were purchased from SigmaAldrich (St. Louis, Mo.).
The kinase reaction was conducted in polystyrene 384-well Greiner Bio-one white plate from Thermo Fisher Scientific in a final volume of 25 μL. Inhibitors were first diluted serially in DMSO and added to the plate wells before the addition of other reaction components. The final concentration of DMSO in the assay was 2%. The PI3Kδ assay was carried out at room temperature in 20 mM MOPS, pH 6.7, 10 mM MgCl2, 5 mM DTT and CHAPS 0.03%. Reactions were initiated by the addition of ATP, the final reaction mixture consisted of 20 μM PIP2, 2 μM ATP, 0.5 μCi [γ-^33P] ATP, 3.4 nM PI3Kδ. Reactions were incubated for 120 min and terminated by the addition of 40 μL SPA beads suspended in quench buffer: 163 mM potassium phosphate pH 7.8, 20% glycerol, 25 mM EDTA. The final concentration of SPA beads is 1.0 mg/mL. After the plate sealing, plates were shaken overnight at room temperature and centrifuged at 1500 rpm for 10 min, the radioactivity of the product was determined by scintillation counting on Topcount (PerkinElmer). IC50 determination was performed by fitting the curve of percent of the solvent control activity versus the log of the inhibitor concentration using the GraphPad Prism 6.0 software.
On the technique in general: Scintillation proximity formats need no separation of bound from free tracer.

The target of assay [2] is PI3Kγ (p110γ) Recombinant Human Protein (Homo sapiens (Human), UniProt P48736). The experiment in a line: PI3K-γ Scintillation Proximity Assay. It is filed as biochemical. The following applies: 2 μM ATP, 20 μM PIP2, 13 nM PI3Kγ. The source says:
PI3K-γ Scintillation Proximity Assay
[γ-^33]ATP (10 mCi/mL) and Wheat Germ Agglutinin (WGA) YSi SPA Scintillation Beads was purchased from Perkin-Elmer (Waltham, Mass.). Lipid kinase substrate, D-myo-Phosphatidylinositol 4,5-bisphosphate (PtdIns(4,5)P2)D (+)-sn-1,2-di-O-octanoylglyceryl, 3-O-phospho linked (PIP2), CAS 204858-53-7, was purchased from Echelon Biosciences (Salt Lake City, Utah). PI3Kγ (p110γ) Recombinant Human Protein was purchased from Life technology (Grand Island, N.Y.). ATP, MgCl2, DTT, EDTA, MOPS and CHAPS were purchased from SigmaAldrich (St. Louis, Mo.).
The kinase reaction was conducted in polystyrene 384-well Greiner Bio-one white plate from Thermo Fisher Scientific in a final volume of 25 μL. Inhibitors were first diluted serially in DMSO and added to the plate wells before the addition of other reaction components. The final concentration of DMSO in the assay was 2%. The PI3Kγ assay was carried out at room temperature in 20 mM MOPS, pH 6.7, 10 mM MgCl2, 5 mM DTT and CHAPS 0.03%. Reactions were initiated by the addition of ATP, the final reaction mixture consisted of 20 μM PIP2, 2 μM ATP, 0.5 μCi [γ-^33P] ATP, 13 nM PI3Kγ. […] After the plate sealing, plates were shaken overnight at room temperature and centrifuged at 1500 rpm for 10 min, the radioactivity of the product was determined by scintillation counting on Topcount (Perkin-Elmer). […]

Assay [3] deals with Phosphorylated Ribosomal Protein S6 (RPS6) in THP-1 cells (PI3Kγ). The experiment in a line: THP-1 RPS6 ELISA Assay. It is filed as cell-based, Human. The following applies: 10 nM MCP-1 for 15 minutes, Phospho-RPS6 ELISA, read-out: PI3Kγ_THP1_RPS6_ELISA IC50. On the procedure: To measure the Phosphorylated Ribosomal Protein S6 (RPS6) in cell lysates, THP-1 cells (Human Acute Monocytic Leukemia) are purchased from ATCC (Manassas, Va.) and maintained in RPMI with 10% FBS (Gibco/Life Technologies, Carlsbad, Calif.). For the assay, THP-1 cells are serum starved overnight in RPMI, then plated in RPMI (2×10^5 cells/well in 90 μL) into 96-well flat-bottom tissue culture treated plates (Corning, Corning, N.Y.), in the presence or absence of a concentration range of test compounds. Covered plates are incubated for 2 hours at 37° C., 5% CO2 then treated with or without 10 nM MCP-1(MYBioSource, San Diego, Calif.) for 15 minutes at 37° C., 5% CO2. Plates are centrifuged at 1600 RPM and supernatants are removed. Cells are lysed in Lysis Buffer (Cell Signaling, Danvers, Mass.) with Protease Inhibitor (Calbiochem/EMD, Germany), PMSF (Sigma, St Louis Mo.), HALTS (Thermo Fisher, Rockford, Ill.) for 30 min on wet ice. Cell lysates are frozen at −80° C. before testing. The lysates are tested in the Human/Mouse/Rat Phospho-RPS6 ELISA (R&D Systems, Inc. Minn, Minn.). The plate is measured using a microplate reader (SpectraMax M5—Molecular Devices, LLC Sunnyvale, Calif.) set to 450 nm with a wavelength correction of 540. IC50 determination is performed by fitting the curve of inhibitor percent inhibition versus the log of the inhibitor concentration using the GraphPad Prism 5.0 software.

Our source for the IC50 values is patent US11186580B2, “Crystalline forms of a phosphoinositide 3-kinase (PI3K) inhibitor” (Incyte Corporation, priority 2018, dated 2021).

Molecules are shown by their SMILES. Like-named read-outs stand apart in the source and are kept apart here. A value given as a limit tells only on which side of the number the result lay.

One may read the IC50 as the concentration needed to halve the response being measured.

Sequence of PI3Kδ (p110δ/p85α) Recombinant Human Protein (O00329 whole entry): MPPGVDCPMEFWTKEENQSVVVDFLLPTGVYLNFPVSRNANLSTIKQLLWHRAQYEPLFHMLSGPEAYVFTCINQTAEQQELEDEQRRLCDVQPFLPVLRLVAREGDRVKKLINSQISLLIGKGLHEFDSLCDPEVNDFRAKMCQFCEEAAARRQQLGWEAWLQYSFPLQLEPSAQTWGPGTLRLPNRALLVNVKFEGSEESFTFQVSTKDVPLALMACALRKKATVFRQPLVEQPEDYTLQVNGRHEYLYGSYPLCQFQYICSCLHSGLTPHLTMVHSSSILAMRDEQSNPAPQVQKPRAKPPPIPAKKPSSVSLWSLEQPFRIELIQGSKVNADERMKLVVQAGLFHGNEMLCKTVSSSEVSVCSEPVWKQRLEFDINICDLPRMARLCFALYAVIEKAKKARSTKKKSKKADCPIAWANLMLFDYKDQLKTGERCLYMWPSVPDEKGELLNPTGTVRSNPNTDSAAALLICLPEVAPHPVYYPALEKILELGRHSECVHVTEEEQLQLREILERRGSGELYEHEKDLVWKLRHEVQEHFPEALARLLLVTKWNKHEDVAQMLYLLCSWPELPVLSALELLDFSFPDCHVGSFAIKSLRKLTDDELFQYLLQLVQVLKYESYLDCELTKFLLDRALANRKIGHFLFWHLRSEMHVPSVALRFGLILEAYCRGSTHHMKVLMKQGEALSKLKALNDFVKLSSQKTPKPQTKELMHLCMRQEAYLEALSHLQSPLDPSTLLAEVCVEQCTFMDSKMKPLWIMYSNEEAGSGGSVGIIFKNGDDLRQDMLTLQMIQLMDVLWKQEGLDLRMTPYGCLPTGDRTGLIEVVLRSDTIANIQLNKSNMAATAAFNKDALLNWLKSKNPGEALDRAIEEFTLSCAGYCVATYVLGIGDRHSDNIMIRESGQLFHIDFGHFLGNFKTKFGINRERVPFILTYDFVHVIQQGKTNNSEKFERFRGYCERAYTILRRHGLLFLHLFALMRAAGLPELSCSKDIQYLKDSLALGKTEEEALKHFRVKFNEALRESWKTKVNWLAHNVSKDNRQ
Sequence of PI3Kδ (p110δ/p85α) Recombinant Human Protein (P27986 whole entry partner): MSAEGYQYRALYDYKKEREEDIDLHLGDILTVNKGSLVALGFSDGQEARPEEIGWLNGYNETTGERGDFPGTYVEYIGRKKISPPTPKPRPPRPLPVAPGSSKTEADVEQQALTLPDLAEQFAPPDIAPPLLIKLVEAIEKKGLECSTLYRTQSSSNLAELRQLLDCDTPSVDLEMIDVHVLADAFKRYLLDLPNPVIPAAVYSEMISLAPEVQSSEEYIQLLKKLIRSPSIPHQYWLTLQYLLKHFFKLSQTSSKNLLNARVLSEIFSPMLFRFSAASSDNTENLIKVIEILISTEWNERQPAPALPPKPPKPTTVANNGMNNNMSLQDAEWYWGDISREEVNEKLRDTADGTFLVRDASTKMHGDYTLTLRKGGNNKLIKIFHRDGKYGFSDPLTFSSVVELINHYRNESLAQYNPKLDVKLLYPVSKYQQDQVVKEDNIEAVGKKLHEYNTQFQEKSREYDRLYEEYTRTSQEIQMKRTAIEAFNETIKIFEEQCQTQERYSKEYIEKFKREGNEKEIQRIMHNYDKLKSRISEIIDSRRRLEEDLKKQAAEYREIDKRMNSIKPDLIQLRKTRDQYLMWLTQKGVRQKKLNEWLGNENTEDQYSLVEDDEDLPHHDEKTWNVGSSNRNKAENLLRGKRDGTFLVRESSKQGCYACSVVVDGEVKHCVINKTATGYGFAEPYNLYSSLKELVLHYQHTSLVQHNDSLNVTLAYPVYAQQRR
Sequence of PI3Kγ (p110γ) Recombinant Human Protein (P48736 whole entry): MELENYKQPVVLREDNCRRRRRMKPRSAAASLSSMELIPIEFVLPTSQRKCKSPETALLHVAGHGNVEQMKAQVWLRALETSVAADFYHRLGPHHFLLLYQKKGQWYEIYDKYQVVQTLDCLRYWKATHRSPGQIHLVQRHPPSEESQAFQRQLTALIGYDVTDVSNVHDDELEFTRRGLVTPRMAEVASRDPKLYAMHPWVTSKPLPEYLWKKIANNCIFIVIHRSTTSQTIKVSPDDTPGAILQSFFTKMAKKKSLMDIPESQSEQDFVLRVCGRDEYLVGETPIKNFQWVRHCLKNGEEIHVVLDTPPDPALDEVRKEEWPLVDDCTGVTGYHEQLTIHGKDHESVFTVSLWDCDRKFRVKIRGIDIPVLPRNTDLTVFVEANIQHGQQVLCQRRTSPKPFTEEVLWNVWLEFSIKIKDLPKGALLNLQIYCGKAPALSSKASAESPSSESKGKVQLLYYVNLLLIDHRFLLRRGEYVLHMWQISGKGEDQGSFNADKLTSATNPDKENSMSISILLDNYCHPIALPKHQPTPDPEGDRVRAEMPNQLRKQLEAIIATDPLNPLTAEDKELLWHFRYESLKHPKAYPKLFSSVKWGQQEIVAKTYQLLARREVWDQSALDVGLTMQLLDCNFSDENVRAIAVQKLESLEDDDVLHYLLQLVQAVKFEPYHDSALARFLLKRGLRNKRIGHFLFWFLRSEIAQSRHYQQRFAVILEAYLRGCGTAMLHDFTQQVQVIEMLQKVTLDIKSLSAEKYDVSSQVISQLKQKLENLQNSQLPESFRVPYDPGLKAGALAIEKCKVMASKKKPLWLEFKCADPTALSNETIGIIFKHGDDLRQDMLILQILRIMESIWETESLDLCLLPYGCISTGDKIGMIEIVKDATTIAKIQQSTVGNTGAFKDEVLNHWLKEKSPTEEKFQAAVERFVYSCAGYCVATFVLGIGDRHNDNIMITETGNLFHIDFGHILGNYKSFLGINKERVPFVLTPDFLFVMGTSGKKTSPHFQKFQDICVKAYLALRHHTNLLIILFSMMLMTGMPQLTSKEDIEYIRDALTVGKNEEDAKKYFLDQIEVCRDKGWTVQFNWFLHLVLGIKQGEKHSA

Regarding `Cc1ccc(C(O)(C(N)=O)C(F)(F)F)cc1-c1cnc2c(N)nc(C(F)(F)F)cn12` (single isomer, unassigned) [Example 1, 2-(3-(8-Amino-6-(trifluoromethyl)imidazo[1,2-a]pyrazin-3-yl)-4-methylphenyl)-3,3,3-trifluoro-2-hydroxypropanamide], the IC50 in assay [1] and in assay [2] was < 100 nM throughout.

In the case of `Cc1ccc(C(C)(O)C(F)(F)F)cc1-c1cnc2c(N)nc(C(=O)NCC(C)(C)O)cn12` (single isomer, unassigned) [Example 5, 8-Amino-N-(2-hydroxy-2-methylpropyl)-3-(2-methyl-5-(1,1,1-trifluoro-2-hydroxypropan-2-yl)phenyl)imidazo[1,2-a]pyrazine-6-carboxamide], the IC50 in assay [1] was < 500 nM; in assay [3] (Homo sapiens, THP-1, 0.25 h), > 1000 nM.

For `Cc1ccc(C(C)(O)C(F)(F)F)cc1-c1cnc2c(N)nc(C(=O)NCC(C)(C)O)cn12` (single isomer, unassigned) [Example 6, 8-Amino-N-(2-hydroxy-2-methylpropyl)-3-(2-methyl-5-(1,1,1-trifluoro-2-hydroxypropan-2-yl)phenyl)imidazo[1,2-a]pyrazine-6-carboxamide], the IC50 in assay [1] and in assay [3] was < 500 nM throughout.

For `[2H]C([2H])([2H])c1ccc(C(C)(O)C(F)(F)F)cc1-c1cnc2c(N)nc(C(=O)NCC(C)(C)O)cn12` (single isomer, unassigned) [Example 9, 8-Amino-N-(2-hydroxy-2-methylpropyl)-3-(2-(methyl-d3)-5-(1,1,1-trifluoro-2-hydroxypropan-2-yl)phenyl)imidazo[1,2-a]pyrazine-6-carboxamide], the IC50 in assay [3] (Homo sapiens, THP-1, 0.25 h) is < 500 nM.
